Here are results for 16 compounds from patent US11248013B2, “Tricyclic inhibitors of poly(ADP-ribose)polymerase” (Rakovina Therapeutics Inc., priority 2011, dated 2022).

A value given as a limit tells only on which side of the number the result lay.

Chain of PARP-1 (P09874 whole entry): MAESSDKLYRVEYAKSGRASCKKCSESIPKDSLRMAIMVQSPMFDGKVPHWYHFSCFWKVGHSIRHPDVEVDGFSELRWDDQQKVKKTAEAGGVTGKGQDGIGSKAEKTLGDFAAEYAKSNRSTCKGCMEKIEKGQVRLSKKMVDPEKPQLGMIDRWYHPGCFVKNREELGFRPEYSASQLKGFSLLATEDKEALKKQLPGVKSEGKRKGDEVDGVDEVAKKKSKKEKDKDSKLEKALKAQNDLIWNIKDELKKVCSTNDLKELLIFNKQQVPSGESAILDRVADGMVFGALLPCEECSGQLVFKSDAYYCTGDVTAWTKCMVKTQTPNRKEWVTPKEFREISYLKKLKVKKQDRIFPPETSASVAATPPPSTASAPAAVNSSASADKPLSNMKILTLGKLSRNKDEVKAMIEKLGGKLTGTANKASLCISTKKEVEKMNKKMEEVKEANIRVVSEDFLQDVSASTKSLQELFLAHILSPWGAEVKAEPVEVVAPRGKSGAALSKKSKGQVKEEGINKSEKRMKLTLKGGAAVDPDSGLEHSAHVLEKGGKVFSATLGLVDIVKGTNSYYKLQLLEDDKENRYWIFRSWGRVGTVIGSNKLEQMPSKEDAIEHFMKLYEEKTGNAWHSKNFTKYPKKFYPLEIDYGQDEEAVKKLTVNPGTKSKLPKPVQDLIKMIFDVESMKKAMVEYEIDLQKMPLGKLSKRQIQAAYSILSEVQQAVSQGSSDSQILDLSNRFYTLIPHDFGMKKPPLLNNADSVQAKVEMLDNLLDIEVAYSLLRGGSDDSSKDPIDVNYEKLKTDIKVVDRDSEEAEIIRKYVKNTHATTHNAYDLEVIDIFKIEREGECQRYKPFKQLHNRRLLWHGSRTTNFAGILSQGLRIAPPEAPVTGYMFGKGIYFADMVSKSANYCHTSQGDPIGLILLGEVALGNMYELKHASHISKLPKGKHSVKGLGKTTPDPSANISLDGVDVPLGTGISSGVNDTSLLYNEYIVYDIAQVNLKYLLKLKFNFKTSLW
Chain of intracellular PARP enzyme (P09874 2-1014 limits assumed): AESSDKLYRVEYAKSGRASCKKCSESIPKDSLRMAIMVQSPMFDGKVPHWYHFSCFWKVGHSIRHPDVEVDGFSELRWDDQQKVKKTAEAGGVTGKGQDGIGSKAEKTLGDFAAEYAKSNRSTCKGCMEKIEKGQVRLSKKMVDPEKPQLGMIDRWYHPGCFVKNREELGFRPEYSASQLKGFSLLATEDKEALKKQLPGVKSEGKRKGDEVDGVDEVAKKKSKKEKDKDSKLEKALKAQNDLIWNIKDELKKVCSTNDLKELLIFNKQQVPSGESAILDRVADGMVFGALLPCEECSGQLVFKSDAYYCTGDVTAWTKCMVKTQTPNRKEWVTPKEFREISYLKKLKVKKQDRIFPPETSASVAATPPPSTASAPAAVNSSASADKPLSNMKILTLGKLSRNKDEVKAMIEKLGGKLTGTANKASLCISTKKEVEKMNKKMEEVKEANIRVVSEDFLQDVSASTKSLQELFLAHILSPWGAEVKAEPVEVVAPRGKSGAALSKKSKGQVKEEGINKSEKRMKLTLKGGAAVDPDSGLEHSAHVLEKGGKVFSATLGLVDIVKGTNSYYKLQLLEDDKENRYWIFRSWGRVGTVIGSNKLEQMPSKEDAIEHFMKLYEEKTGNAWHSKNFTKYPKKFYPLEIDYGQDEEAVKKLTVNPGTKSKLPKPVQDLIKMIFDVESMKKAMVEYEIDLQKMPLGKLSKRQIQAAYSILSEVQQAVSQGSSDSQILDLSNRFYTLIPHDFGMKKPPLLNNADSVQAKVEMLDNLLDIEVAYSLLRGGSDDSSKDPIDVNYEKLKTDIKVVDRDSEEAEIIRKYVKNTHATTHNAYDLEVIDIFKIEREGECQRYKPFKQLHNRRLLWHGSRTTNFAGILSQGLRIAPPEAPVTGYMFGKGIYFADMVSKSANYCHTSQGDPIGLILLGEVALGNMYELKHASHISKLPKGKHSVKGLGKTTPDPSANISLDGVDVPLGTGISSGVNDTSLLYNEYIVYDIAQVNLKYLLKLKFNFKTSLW

One assay concerns the target PARP-1 (Homo sapiens (Human), UniProt P09874). Nature of the assay: PARP-1 Enzyme Assay (HT Universal Colorimetric PARP Assay Kit). It counts as biochemical. To be noted: OD450, read-out: IC50 (PARP-1 inhibition). As to the method:
Inhibition of PARP-1 enzymatic activities was measured using an HT Universal Colorimetric PARP Assay Kit (Trevigen, catalogue #4677-096-K) following the standard procedures.
Serial dilutions of PARP compounds were added to appropriate wells. The compound was incubated with PARP enzyme at RT for 10 min, and the reaction was initiated by addition of the PARP substrate cocktail, Each concentration of compound was tested in triplicate wells. After 15 min reaction, the reaction was stopped, and the Strep-HRP was added into each well and incubated for 1 h at RT. After addition of TACS-Sapphire™ colorimetric substrate and incubated in dark for 15 min, the OD450 was read out with an EnVision instrument. IC50 values (the concentration at which 50% of the enzyme activity is inhibited) were calculated, which are determined over a range of different concentrations, normally from 10 μM to 0.1 nM.
For `CC(C)CCN1CCP(=O)(c2cc(Cc3n[nH]c(=O)c4ccccc34)ccc2F)CC1` [Example 48], the IC50 was less than 100 nM. As for `O=c1[nH]nc(Cc2ccc(F)c(P3(=O)CCN(c4ncccc4F)CC3)c2)c2ccccc12` [Example 23, 4-(4-fluoro-3-(1-(3-fluoropyridin-2-yl)-4-oxido-1,4-azaphosphinan-4-yl)benzyl)phthalazin-1(2H)-one], the IC50 was less than 100 nM. The same measure, in the same setting: as for `O=c1[nH]nc(Cc2ccc(F)c(P3(=O)CCN(c4ccc(Cl)nn4)CC3)c2)c2ccccc12` [Example 13, 4-(3-(1-(6-chloropyridazin-3-yl)-4-oxido-1,4-azaphosphinan-4-yl)-4-fluorobenzyl)phthalazin-1(2H)-one], the figure is less than 100 nM; as for `O=C(N1CCCC1)N1CCP(=O)(c2cc(Cc3n[nH]c(=O)c4ccccc34)ccc2F)CC1` [Example 10], 100 to 1000 nM. Still for that read-out and setting: as for `O=c1[nH]nc(Cc2ccc(F)c(P3(=O)CCN(C4CC4)CC3)c2)c2ccc(F)cc12` [Example 54, 4-(3-(1-cyclopropyl-4-oxido-1,4-azaphosphinan-4-yl)-4-fluorobenzyl)-7-fluorophthalazin-1(2H)-one], the figure is less than 100 nM; as for `CCCN1CCP(=O)(c2cc(Cc3n[nH]c(=O)c4ccccc34)ccc2F)CC1` [Example 45], less than 100 nM; as for `O=C(C1CCCC1)N1CCP(=O)(c2cc(Cc3n[nH]c(=O)c4ccccc34)ccc2F)CC1` [Example 2, 4-(3-(1-(cyclopentanecarbonyl)-4-oxido-1,4-azaphosphinan-4-yl)-4-fluorobenzyl)phthalazin-1 (2H)-one], 1000 to 10000 nM. Still for that read-out and setting: as for `CCCc1cnc(N2CCP(=O)(c3cc(Cc4n[nH]c(=O)c5ccccc45)ccc3F)CC2)nc1` [Example 37, 4-(4-fluoro-3-(4-oxido-1-(5-(n-propyl)pyrimidin-2-yl)-1,4-azaphosphinan-4-yl)benzyl)phthalazin-1(2H)-one], the figure is 100 to 1000 nM; as for `O=c1[nH]nc(Cc2ccc(F)c(P3(=O)CCN(c4ncccn4)CC3)c2)c2ccc(F)cc12` [Example 56, 4-(4-fluoro-3-(4-oxido-1-(pyrimidin-2-yl)-1,4-azaphosphinan-4-yl)benzyl)-7-fluorophthalazin-1(2H)-one], less than 100 nM. `N#Cc1cccnc1N1CCP(=O)(c2cc(Cc3n[nH]c(=O)c4ccccc34)ccc2F)CC1` [Example 16, 2-(4-(2-fluoro-5-((4-oxo-3,4-dihydrophthalazin-1-yl)methyl)phenyl)-4-oxido-1,4-azaphosphinan-1-yl)nicotinonitrile]: the IC50 was less than 100 nM.

`O=c1[nH]nc(Cc2ccc(F)c(P3(=O)CCN(c4ncc(F)cc4F)CC3)c2)c2ccccc12` [Example 28, 4-(4-fluoro-3-(1-(3,5-difluoropyridin-2-yl)-4-oxido-1,4-azaphosphinan-4-yl)benzyl)phthalazin-1(2H)-one]: the concentration for half-maximal inhibition (IC50) is less than 100 nM. Turning to `O=c1[nH]nc(Cc2ccc(F)c(P3(=O)CCN(c4cccc(F)n4)CC3)c2)c2ccccc12` [Example 25, 4-(4-fluoro-3-(1-(6-fluoropyridin-2-yl)-4-oxido-1,4-azaphosphinan-4-yl)benzyl)phthalazin-1(2H)-one], the IC50 was less than 100 nM. The same measure, in the same setting: as for `CC(C)(C)CN1CCP(=O)(c2cc(Cc3n[nH]c(=O)c4ccccc34)ccc2F)CC1` [Example 47, 4-(4-fluoro-3-(1-neopentyl-4-oxido-1,4-azaphosphinan-4-yl)benzyl)phthalazin-1(2H)-one], the figure is 100 to 1000 nM; as for “4-(3-(1-(3-chloro-5-(trifluoromethyl)pyridin-2-yl)-4-oxido-1,4-azapbosphinan-4-yl)-4-fluorobenzyl)phthalazin-1(2H)-one [Example 20]”, 100 to 1000 nM; as for `CC(C)(C)CN1CCP(=O)(c2cc(Cc3n[nH]c(=O)c4ccccc34)ccc2F)CC1` [Example 46, 4-(4-fluoro-3-(1-neopentyl-4-oxido-l,4-azaphosphinan-4-yl)benzyl)phthalazin-1(2H)-one], less than 100 nM. Still for that read-out and setting: as for `O=c1[nH]nc(Cc2ccc(F)c(P3(=O)CCN(Cc4ccccc4)CC3)c2)c2ccccc12` [Example 1, 4-(3-(1-benzyl-4-oxido-1,4-azaphosphinan-4-yl)-4-fluorobenzyl)phthalazin-1(2H)-one], the figure is less than 100 nM.

A further assay has as its target intracellular PARP enzyme (Homo sapiens, UniProt P09874). The experiment in a line: PARP Cell Assay (IHC, intracellular poly(ADP)-ribose formation in C41 cells). It counts as cell-based. To be noted: C41 cells (Human cervical carcinoma), 2 h compound, 1.0 mM H2O2 for 10 min; read-out: EC50 (TARP cell assay). As to the method:
Inhibition of intracellular PARP enzyme was determined using an immunohistochemistry (IHC) assay. The cellular assay measures the formation of poly (ADP)-ribose catalyzed by PARP inside cells.
Anti-PAR (Ab-1) Mouse mAb (10H) (Calbiochem, AM-80); Anti-Mouse IgG (whole molecule)-FITC antibody produced in goat (sigma, F2012); DAPI (sigma, D9542).
The C41 cells (Human cervical carcinoma; ATCC No. CRL-1594) were planted into 96-well plates at 8.0E4 cells/well and incubated at 37° C. overnight. Cells were washed with 37° C. warmed PBS once and treated with test compounds for 2 h in 96-well plates. Cells were washed with 37° C. warmed PBS once, and PARP was activated by damaging DNA with 1.0 mM H2O2 for 10 min. Cells were washed with ice-cold PBS once and fixed with pre-chilled methanol/acetone (7:3) at −20° C. for 10 min. After air-drying, plates were rehydrated with PBS and blocked using 5% nonfat dry milk in PBS-Tween (0.05%) (block solution) for 30 min at room temperature. […] After washing with PBS-Tween20.5 times, analysis was performed using Vector 3 Microplate Reader (PerkinElmer) set at the excitation (485 nm) and emission (535 nm) wavelength for FITC or the excitation (364 nm) and emission (454 nm) wavelength for DAPI. […]
For `CC(C)CCN1CCP(=O)(c2cc(Cc3n[nH]c(=O)c4ccccc34)ccc2F)CC1` [Example 48], the EC50 fell in the range of 100 to 1000 nM.

As a reminder, the IC50 is the midpoint of a concentration-inhibition curve. As a reminder, the EC50 is the concentration giving half of the maximal effect.
